The term melting point denotes the temperature of the solid-liquid transition.

The text below walks through data of patent publication US7112603B2, “Prodrugs of 3-(pyrrol-2-ylmethylidene)-2-indolinone derivatives” (Agouron Pharmaceuticals, Inc., priority 2000, dated 2006).

The nature of series [1]: Plasma Stability Test (IV dosing of prodrug, HPLC analysis of blood plasma). The conditions noted are these: dogs, IV at 2 mg/mL, HPLC analysis of blood plasma for 4 hours following dosing. It is filed as in vivo. On the procedure: The prodrug (3Z)-3-[(3,5-dimethyl-1H-pyrrol-2-yl)-methylidene]-1-(1-pyrrolidinylmethyl)-1,3-dihydro-2H-indol-2-one was administered IV at 2 mg/mL to dogs. Levels of both prodrug and drug (3(Z)-3-[(3,5-dimethyl-1H-pyrrol-2-yl)-methylidene]-1,3-dihydro-2H-indol-2-one) were followed by HPLC analysis of blood plasma for 4 hours following dosing.

As for `Cc1cc(C)c(/C=C2\C(=O)N(CO)c3ccccc32)[nH]1`, the melting point was in the range of 200 to 202 °C.
`CC(=O)OC(C)N1C(=O)/C(=C\c2[nH]c(C)cc2C)c2ccccc21` (stereo not drawn): the melting point was 107 to 110 °C.
On the same count and under the same terms, in the case of `Cc1cc(C)c(/C=C2\C(=O)N(C(=O)CNC(=O)OCc3ccccc3)c3ccccc32)[nH]1` it was 193 to 196 °C; in that of `Cc1cc(C)c(/C=C2\C(=O)N(COC(=O)CCC(=O)O)c3ccccc32)[nH]1`, 160 to 162 °C.
Turning to `Cc1cc(C)c(/C=C2\C(=O)N(CN3CCCC3)c3ccccc32)[nH]1` [Example 14, (3Z)-3-[(3,5-dimethyl-1H-pyrrol-2-yl)-methylidene]-1-(1-pyrrolidinylmethyl)-1,3-dihydro-2H-indol-2-one], in series [1], the “half-life for conversion of the prodrug to drug” value is 7.3 min and the “prodrug converted into drug (from area under the curve of drug concentration vs. time)” value is recorded as 80%.
